In publication PMC8286829, “Identifying SARS-CoV-2 antiviral compounds by screening for small molecule inhibitors of nsp14/nsp10 exoribonuclease” (Biochemical Journal, 2021):

Biological target: T1, nsp10–14 fusion protein (Severe acute respiratory syndrome coronavirus 2, UniProt P0DTD1)
T1 construct: gene rep; with Non-structural protein 10
Assay: biochemical

O=C1C=C2C(=CCOC2O)O1 (stereo not shown) [patulin] showed an IC50 of 1800 nM.
